Data: patent publication US8741570B2, “Thermo-optical characterisation of nucleic acid molecules” (Ludwig-Maximilians-Universitat Munchen, priority 2008, dated 2014)
{AF700} = Alexa Fluor 700 fluorescent dye

Experiments:
bacteriophage lambda DNA = assay: DNA hybridization thermophoresis of labelled probe with lambda DNA; format: binding
Method: Typical target molecules are longer than 20 bases and double stranded. For target molecules longer than 20 bases and double stranded, one has to expect a competing reaction between the labeled probe and the target DNA strands containing the same “probe-sequence”. […] The concentration change is determined in samples containing the pure DNA probe and in solutions containing the probe mixed with lambda DNA. We checked twice for the hybridization of probe DNA and lambda DNA. First after simply mixing of the molecules and second after an additional annealing procedure (94° C., 5 min and 72° C., 5 min) was carried out.
The experiment shown in FIG. 38 (b) is performed at a constant concentration of 40 nM probe DNA and 10 nM target DNA. All samples are preferably measured in a 100 μm-1 mm Capillary. The thermo-optical properties of the probe DNA have been determined in an independent experiment, followed by a mix of probe and target. […]
After an equilibration time of preferably 10 seconds a first capillary can be measured. […]
Step 1. […] (The thermo-optical properties (i.e. concentration change) of the free probe molecule is known from an independent experiment. Alternatively the thermo-optical behavior of a DNA molecule similar to the probe, but not complementary to a target molecule, is measured simultaneously in a multiplex approach (internal reference)).
Step 2. […] The immediately established local spatial temperature distribution causes the labeled primers and elongated primers (as well as internal reference standards) to drift to lower or higher temperatures, depending on the particular molecule to be analyzed and conditions like pH, salt concentration etc. […] The maximum temperature elevation is set below values which would harm the molecules to be analyzed or hinder their hybridization. […]
Step 3. During the laser heating an image of the fluorescence distribution is recorded (or multiple frames which may be averaged to a single image). Afterwards the infrared laser and the fluorescence excitation light source are turned off. […]

[1] = Hydration entropy from literature; format: physicochemical; details: linear scaling with surface area using radius a=2 nm
Description: The intercept ST(λDH=0), where ionic contributions are zero, also scales with particle surface and is described by a hydration entropy per particle surface of shyd=−1400 J/(molKμm^2). The value matches the literature values for similar surfaces reasonably well^30,31. […] Linear scaling with its surface area by using a radius of a=2 nm results in a value of shyd=−2500 J/(molKμm^2), in qualitative agreement with our result. The hydration entropy is a highly informative molecule parameter which is notoriously difficult to measure, yielding an interesting application for thermodiffusion.

[2] = at a comparable temperature; cited from earlier work
[3] = Thermodiffusion (Soret coefficient) by microfluidic fluorescence imaging / single particle tracking; format: physicochemical; details: 50 μM dye in 10 mM TRIS buffer, concentration over time method

With “5′-GATGAGTTCGTGTCCGTACAACTGG-3′ (DNA, 5' {AF700}, backbone and methylation of C not given here) [probe]” the concentration change (bacteriophage lambda DNA; free probe, 40 nM) was −2%, the concentration change (bacteriophage lambda DNA; probe 40 nM mixed with 10 nM lambda DNA, without annealing procedure) was −3% and the concentration change (bacteriophage lambda DNA; probe 40 nM with 10 nM lambda DNA after denaturing (94° C., 5 min) and annealing (72° C., 5 min)) was −10%.
In the case of `C[C@H](NS(=O)(=O)c1cccc2c(N(C)C)cccc12)C(=O)O` [Dansyl-Alanine], the “hydration entropy per surface shyd” value [1] is given as −2500 J/(molKμm^2) and the hydration entropy [2] is given as −0.13 J/(molK).
With BCECF the “Soret coefficient ST” value [3] was 0.015 /K.
